What was measured:
Leishmania donovani [1] = assay: Antileishmanial activity against intracellular amastigote stage of Leishmania donovani MHOM/IN/00/DEVI infected in human THP1 cells assessed as decrease infected macrophages after 120 hrs by microscopy; format: functional, organism-based; settings: THP-1, 120 h
Leishmania donovani [2] = assay: Antileishmanial activity against promastigote stage of Leishmania donovani MHOM/IN/00/DEVI assessed as inhibition of metabolic activity after 72 hrs by MTT assay; format: functional, organism-based
HepG2 = assay: (§1) Cytotoxicity against human HepG2 cells after 72 hrs by MTT assay; format: cell-based; settings: hepg2, 72 h
[3] = as §1; format: cell-based; settings: HepG2 cells
[4] = Selectivity index, CC50 for human HepG2 cells to IC50 for promastigote stage of Leishmania donovani MHOM/IN/00/DEVI; format: functional
[5] = Cytotoxicity against mouse J774A.1 cells after 72 hrs by MTT assay; format: cell-based; settings: J774.1, 72 h
Leishmania infantum = assay: Antileishmanial activity against intracellular amastigote stage of Leishmania infantum MHOM/MA/67/ITMAP-263 expressing luciferase infected in mouse J774A1 cells assessed as inhibition of metabolic activity after 120 hrs by luminescence assay; format: functional, organism-based; settings: MHOM/MA/67/ITMAP-263, J774.A1, 120 h
THP-1 = assay: Cytotoxicity against human THP1 cells after 72 hrs by MTT assay; format: cell-based; settings: THP-1, 72 h
[6] = Leishmania donovani, MHOM/IN/00/DEVI, 72 h, read-out: IC50

Row | SMILES | IC50 (Leishmania donovani [2]; [6]) [µM] | CC50 at 72 h [3] [µM] | Ratio CC50/IC50 [4] | further results
1 | O=C(c1cccc([N+](=O)[O-])c1)c1ccc2ccc(/C=C/c3ccc(O)c(O)c3)nc2c1O |  |  |  | IC50 (Leishmania donovani [1]): 1.22 µM
2 | O=c1cc(C#Cc2ccc(Cl)cc2)c2cccc([N+](=O)[O-])c2[nH]1 |  |  |  | IC50 (Leishmania donovani [2]): ND(Insoluble); CC50 (HepG2): ND(Insoluble)
3 | O=c1cc(C#Cc2ccccc2)c2cccc([N+](=O)[O-])c2[nH]1 | 2.7 | 11.6 | 4.4 | 
4 | O=c1cc(-c2ccco2)c2cccc([N+](=O)[O-])c2[nH]1 | > 5 | > 31.3 |  | 
5 | O=c1cc(-c2ccc(Br)cc2)c2cccc([N+](=O)[O-])c2[nH]1 | 3.3 | > 31.3 | >9.5 | IC50 [5]: 9 µM; IC50 (Leishmania infantum): > 20 µM; IC50 (THP-1): > 31.3 µM; IC50 (Leishmania donovani [1]): > 15.6 µM
6 | O=c1cc(-c2ccc(C(F)(F)F)cc2)c2cccc([N+](=O)[O-])c2[nH]1 | 6.1 | 42.7 | 7 | IC50 [5]: 33.4 µM; IC50 (Leishmania infantum): 11.8 µM; IC50 (THP-1): > 31.3 µM; IC50 (Leishmania donovani [1]): > 20 µM
7 | O=c1cc(C#CCCO)c2cccc([N+](=O)[O-])c2[nH]1 | 21.8 | 15.9 | 0.7 | 
8 | N=C(N)c1ccc(OCCCCCOc2ccc(C(=N)N)cc2)cc1 [PENTAMIDINE] |  |  | 0.4 | IC50 [5]: 1 µM; IC50 (Leishmania infantum): > 20 µM; IC50 (Leishmania donovani [1]): > 20 µM
9 | CCC(O)CC#Cc1cc(=O)[nH]c2c([N+](=O)[O-])cccc12 (stereo not given) | 16.7 | 3.8 | 0.2 | 
10 | O=c1cc(-c2ccccc2)c2cccc([N+](=O)[O-])c2[nH]1 | 14.7 | 31.9 | 2.2 | 
11 | CC(C)(C)OCc1cc(=O)[nH]c2c([N+](=O)[O-])cccc12 | > 50 | 5.3 | <0.1 | 
12 | O=c1cc(-c2cccc(C(F)(F)F)c2)c2cccc([N+](=O)[O-])c2[nH]1 | > 5 | 14.7 | <2.9 | 
13 | O=c1cc(C#CCOc2ccccc2)c2cccc([N+](=O)[O-])c2[nH]1 | 1.4 | 1.8 | 1.3 | 
14 | Cc1ccc(-c2cc(=O)[nH]c3c([N+](=O)[O-])cccc23)s1 | > 5 | > 15.6 |  | 
15 | COc1cccc2c1C(=O)c1c(O)c3c(c(O)c1C2=O)C[C@@](O)(C(=O)CO)C[C@@H]3O[C@H]1C[C@H](N)[C@H](O)[C@H](C)O1 [DOXORUBICIN] |  |  |  | IC50 [5]: 0.06 µM
16 | Cc1ccc(-c2cc(=O)[nH]c3c([N+](=O)[O-])cccc23)cc1 | 9.1 | 31 | 3.4 | 
17 | Nc1cccc2ccc(=O)[nH]c12 | > 50 | > 100 |  | 

Row | SMILES | IC50 (Leishmania donovani [2]; [6]) [µM] | CC50 at 72 h [3] [µM] | Ratio CC50/IC50 [4] | further results
18 | C[C@@H]1[C@H](O)[C@@H](C)/C=C/C=C/C=C/C=C/C=C/C=C/C=C/[C@H](O[C@@H]2O[C@H](C)[C@@H](O)[C@H](N)[C@@H]2O)C[C@@H]2O[C@](O)(C[C@@H](O)C[C@@H](O)[C@H](O)CC[C@@H](O)C[C@@H](O)CC(=O)O[C@H]1C)C[C@H](O)[C@H]2C(=O)O [AMPHOTERICIN B] |  |  |  | IC50 [5]: 2.5 µM; IC50 (Leishmania infantum): 0.06 µM; IC50 (THP-1): 8.4 µM; IC50 (Leishmania donovani [1]): 0.16 µM
19 | CCCCCCCCCCCCCCCCOP(=O)([O-])OCC[N+](C)(C)C [MILTEFOSINE] |  |  |  | IC50 [5]: 90.4 µM; IC50 (Leishmania infantum): 4.2 µM; IC50 (THP-1): 40.5 µM; IC50 (Leishmania donovani [1]): 6.8 µM
20 | O=c1cc(-c2ccncc2)c2cccc([N+](=O)[O-])c2[nH]1 | 77.2 | 15.7 | 0.2 | 
21 | COc1cccc(C#Cc2cc(=O)[nH]c3c([N+](=O)[O-])cccc23)c1 | > 10 | > 10 |  | 
22 | O=c1cc(-c2ccc(Cl)cc2)c2cccc([N+](=O)[O-])c2[nH]1 | 4.2 | 16.1 | 3.8 | 
23 | O=[N+]([O-])c1c(CS(=O)(=O)c2ccccc2)nc2c(Br)cc(Br)cn12 |  |  |  | IC50 (Leishmania donovani [1]): 5.5 µM
24 | O=c1cc(C#CCO)c2cccc([N+](=O)[O-])c2[nH]1 | 2.4 | 2.1 | 0.9 | 
25 | O=c1cc(-c2ccc(F)cc2)c2cccc([N+](=O)[O-])c2[nH]1 | 28 | 36.1 | 1.3 | 
26 | CCCCCCCCCCCCc1cc(=O)[nH]c2c([N+](=O)[O-])cccc12 |  |  |  | IC50 (Leishmania donovani [2]): ND(Insoluble); CC50 (HepG2): ND(Insoluble)
27 | O=[N+]([O-])c1cccc2c(Br)cc(Br)nc12 | > 50 | > 100 |  | 
28 | CSc1ccc(OCc2ncc([N+](=O)[O-])n2C)cc1 [FEXINIDAZOLE] |  |  |  | EC50 (Leishmania donovani [1]): 2.8 µM
29 | O=c1cc(-c2cccnc2)c2cccc([N+](=O)[O-])c2[nH]1 | > 50 | 10.1 | <1 | 
30 | CCN(CC)CCCCCCNc1cc(OC)cc2c(C)ccnc12 [SITAMAQUINE] |  |  |  | IC50 (Leishmania donovani [1]): 1 µM
31 | Cc1nc2c(Cl)cccc2c(O)c1CN1CCCCC1C (stereo not given) |  |  |  | IC50 (Leishmania donovani [1]): 0.06 µM
32 | O=c1cc(Br)c2cccc([N+](=O)[O-])c2[nH]1 | 9.6 | 27.1 |  | 
33 | COc1ccc(-c2cc(=O)[nH]c3c([N+](=O)[O-])cccc23)cc1 | 28 | 37.1 | 1.3 | 

Source: ChEMBL document CHEMBL3400040, “Antileishmanial pharmacomodulation in 8-nitroquinolin-2(1H)-one series” (Bioorg Med Chem, 2015)
